What all share (type): cell-based
Assay [1] concerns RSV fusion (HEK293T cells transfected with pCDNA3.1_A2_F). In words: RSV fusion assay. To be noted: human respiratory syncytial virus, HEK-293T, read-out: RSV Fusion Assay (n ≥ 2) IC50. How it is done: HEK293T ((ECACC 12022001) cells were cultured in T75 culture flasks in Dulbecco's medium (DMEM) containing 10% Foetal Bovine serum (FBS), 50 units per mL Penicillin and 50 μg/mL Streptomycin and warmed to 37° C. prior to use. The cells were passaged by first washing briefly with 5 mL Phosphate buffered saline (PBS), followed by addition of 2 mL of Trypsin Ethylenediaminetetraacetic acid (EDTA) to detach the cells. Once cells had detached from the flask, 8 mL media was then added to and the cells dispersed via pipetting against the bottom of the flask.
The cells were counted and diluted to 3×10^5 cells/mL in fresh media. Two T75 flasks were each seeded with 15.6 mL diluted cells, cells were also subcultured at a ratio of between 1:2 and 1:10, to continue the stock. The flasks were then incubated for 24 h at 37° C. and 5% CO2.
The plasmid DNA (for pFR-Luc and pcDNA3.1_Gal4/NFKB) to be transfected into the HEK 293T cells was first prepared in serum free media (Opti-MEM, Invitrogen), containing the transfection reagent FuGENE® 6 (Promega). Serum free media was placed in a 1.5 mL eppendorf tube then the FuGENE 6 was added into the media. The tube was vortexed for 1 s before being incubated at RT for 5 min. 7.79 ng of both pFR_luc and pCDNA3.1_A2_F plasmid DNA were added to tube 1 and 7.79 ng of pCDNA3.1_GAL4-NF-κB plasmid to tube 2. The tubes were vortexed for 1 second and then incubated at room temperature for 15 min. Each transfection mixture was then added into the media of one of the T75 flasks of 293T cells. Cells were cultured for 24 h at 37° C., 5% CO2 in a humidified incubator.
Compounds were diluted (in a polypropylene round-bottomed 96 well plate) 1:3 in a twelve point dilution curve to give top [final] of either 25 μM, 3 μM, 1 μM or 500 nM. A control compound was included in every assay at a top concentration of 3 μM. Transfected cells were counted and diluted to 4×10^5 cells/mL in fresh media. 50 μL of transfection population 1 were added to all wells of the 96 well flat bottom white opaque assay plates. 100 μL diluted compound (2 rows per compound), control compound (one row) and controls (DMSO (0% inhibition, four wells), 3 μM positive control (100% inhibition, four wells) and media (transfection population 1 only, four wells) were added to the appropriate wells. 50 μL of the diluted (4×10^5 cells/mL) population 2 cells when then added to all wells, except the four wells of transfection population 1 only where an extra 50 μL of this cells population was added.
The plates were then incubated for 24 h at 37° C. and 5% CO2. After this time, 100 μL was removed from all wells and 60 μL of ONE-Glo™ (Promega) reagent, pre-equilibrated to room temperature, was added. Plates were then incubated for 3 min at room temperature before luminescence was read, using the ONE-Glo protocol, on the GloMax Explorer System (Promega) multimode reader. Analysis was carried out in Dotmatics software. All raw data were background subtracted (subtraction of mean 3 μM positive control value), before IC50 calculation.

Assay [2] has as its system RSV A2 VR-1540. In words: RSV plaque reduction assay, typical conditions (HEp-2 cells). The note with it: human respiratory syncytial virus. The procedure: The plaque reduction assay was typically performed as follows. HEp-2 cells (ATCC, CCL23) were passaged in flasks and seeded in 96-well plates in DMEM containing antibiotics and supplemented with 10% FBS. During inoculation and subsequent incubation, cells were cultured in DMEM containing 3% FBS. 100 plaque forming unit (PFU)/well of RSV (RSV A2 VR-1540) was mixed with ten serial dilutions of compound. Subsequently, 100 μL of the virus/compound mixtures was added to confluent HEp-2 cell monolayers. The cells and virus/compound mixtures were incubated at 35° C. in a humidified 5% CO2 incubator for 1 day.
Cells were washed twice with PBS before adding 50% v % v EtOH/MeOH, and then stored at −20° C. On the day of the staining, fixative was first removed from the plates. Plates were washed 3× with PBS. A pre-titrated amount of the primary antibody was added in 60 μL PBS/2% milk powder, and plates incubated for 1 h at rt. The plates were washed 3× with PBS/0.05% Tween20 before addition of goat anti-mouse horse radish peroxidase in 60 μL PBS/2% milk powder, and incubated for 1 h at rt. Following three wash steps with PBS/0.05% Tween20, 60 μL ready-to-use TrueBlue was added and plates were incubated at it for 10-15 min before adding MilliQ water. Plates were washed once with water, incubated for 30-60 min and after removal of water, air-dried in the dark.
(§1) Plates were scanned and analyzed using the Immunospot S6 UV analyzer, which is equipped with BioSpot analysis software for counting immunostained plaques (virospots). Plaque counts were used to calculate % infection relative to the mean of the spot count (SC) in the virus control wells for RSV. IC50/IC90 values were calculated as 50% or 90% reduction in signal, respectively, by interpolation of inhibition curves fitted with a 4-parameter nonlinear regression with a variable slope in GraphPad 5.0 (Prism). Alternatively, where noted the plaque reduction assay was performed as follows. Hep G2 cells (ECACC, 85011430) were passaged in flasks and seeded in 12-well plates in DMEM containing antibiotics and supplemented with 10% FBS, 24 h prior to inoculation. During inoculation and subsequent incubation, cells were cultured in DMEM containing 2% FBS. 75 plaque forming unit (PFU)/well of RSV (RSV A2, 0709161v) was mixed with 8 serial dilutions of compound. Subsequently, 200 μL of the virus/compound mixtures was added to confluent Hep G2 cell monolayers, for a 2 h infection, with manual shaking every 15 min. Infectious supernatant was then removed and replaced with 2 mL of overlay, comprising 4 parts of DMEM+2% FBS and 1 part 4% CMC, with 0.25% DMSO. The cells were incubated at 37° C. in a humidified 5% CO2 incubator for 5 days.
(Plaque reduction counts the foci of infection that form in a cell layer.)

For assay [3], the system named is RSV A2, 0709161v. In words: RSV plaque reduction assay, alternative conditions (Hep G2 cells). To be noted: human respiratory syncytial virus, HepG2, mean of at least 2 independent experiments, read-out: RSV Plaque Reduction Assay Strain A2 IC50. How it is done: as §1
Overlay was removed, and cells were washed with PBS before fixing with a mixture of 75% acetone 25% methanol for 3 minutes and replacing with fresh PBS. […] Staining was carried out whilst shaking at 37° C. First the plates were blocked with 500 uL PBS-T/2% milk powder per well, for 1 hr. This was then replaced with 250 uL PBS-T/2% milk powder containing a pre-titrated amount of the primary antibody (ab1128), for 90 min. The plates were washed 3×5 min with PBS-T, before addition of rabbit anti-goat horse radish peroxidase (AP106P) in 250 μL PBS-T/2% milk powder, and incubated for 1 hr. […]
Plates were scanned and analysed using the Immunospot S6 Macro analyzer, which is equipped with BioSpot analysis software for counting immunostained plaques. […]

The values that follow come from patent US11141406B2, “Pharmaceutical compounds” (REVIRAL LIMITED, priority 2017, dated 2021).

Turning to `CS(=O)(=O)N1CCN(CCCn2c(CN3C(=O)C(F)(F)c4ccccc43)nc3cc(Cl)ccc32)CC1` [Compound 2, 1-({5-Chloro-1-[3-(4-methanesulfonylpiperazin-1-yl)propyl]-1H-1,3-benzodiazol-2-yl}methyl)-3,3-difluoro-2,3-dihydro-1H-indol-2-one], the IC50 was found to be 16 nM in assay [1] and 5 nM in assay [2] (†: typical protocol, n = 1, read-out: RSV Plaque Reduction Assay Strain A2 IC50). Besides, the IC90 in assay [2] (typical protocol, read-out: RSV Plaque Reduction Assay Strain A2 IC90) was 35 nM.

For `CS(=O)(=O)N1CCC(n2c(CN3C(=O)C(F)(F)c4ccccc43)nc3cc(Cl)ccc32)CC1` [Compound 8, 1-{[5-Chloro-1-(1-methanesulfonylpiperidin-4-yl)-1H-1,3-benzodiazol-2-yl]methyl}-3,3-difluoro-2,3-dihydro-1H-indol-2-one], the IC50 in assay [1] stood at 1.7 nM; in assay [3] it was 3.5 nM.

Broadly, the IC50 is the concentration that inhibits the measured activity by half. What is called IC90 is the concentration needed for an effect of 90%.
